Experimental data published in US20220370553A1, “PREBIOTIC-INDUCED ANTI-TUMOR IMMUNITY” (Sanford Burnham Prebys Medical Discovery Institute, priority 2019, published 2022).

How the values were obtained:
fecal microbiota = test: 16S sequencing of fecal microbiota, MC-38 colon cancer model; type: in vivo, C57BL/6 mice
Protocol: Bacterial DNA extraction and 16S library preparation. […] Mouse fecal pellets were frozen on dry ice, and stored at −80° C. Bacterial DNA was extracted using the QIAmp Fast DNA Stool Mini Kit (Qiagen). To ensure efficient cell lysis, a 5-min bead-beating step using a Mini-Beadbeater-16 was included (Biospec Products, OK, USA). Library preparation for the Illumina MiSeq platform was performed by amplification of the V3-V4 region of the bacterial 16S ribosomal DNA gene using
C. Adapter and barcode sequences for dual indices were used as described by Illumina. PCR clean up steps were performed with QIAquick 96-PCR Clean up kit (Qiagen, Germany), and library quantification was performed using a KAPA Library Quantification Kit for Illumina platforms (KAPA Biosystems, MA, USA). An Experion Automated Gel Electrophoresis System (Bio-Rad, CA, USA) was used to measure the DNA concentration and purity of the pooled libraries. The 16S libraries were sequenced at Novagene (Beijing, China) and the SBP sequencing Core.
16S sequencing data processing. The original FASTQ files from Illumina 250 basepair paired-end sequencing of the samples were processed using a novel 16S amplicon sequencing pipeline HiMap (http://github.com/taolonglab/himap; BioRxiv 565572). The output of HiMap is Operational Strain Unit (OSU) which contains one or more bacterial strains that best match the 16S sequence and cannot be further distinguished. The percentage similarity between the 16S sequence and the aligned region of 16S rRNA genes of the strains in the OSU is indicated. OSUs mapped to the same strains are grouped together (adding read counts) if percentage similarities are within 3%. Read counts are converted into relative abundance as described in HiMap. Log 10-transformed relative abundances were used for comparisons between samples under different experimental conditions.
The effects of inulin on the microbiota were evaluated in a colon cancer model. […] MC-38 mouse colorectal cancer cells (1×10^6) were inoculated, and diets were continued after inoculation.
(§1) P-values were calculated using paired one-tail Wilcoxon rank sum test.
as §1

SW1 tumor cells = test: SW1 tumor growth in germ free mice colonized with minimal microbiota (ASF); type: in vivo, C3H/HeN mice; conditions: two weeks of mucin, 24 days
From the text: Tumor size was monitored over the next 24 days (n=15).
Animals and tumor models. All experimental animal procedures were approved by the Institutional Animal Care and Use Committee of Sanford Burnham Prebys Medical Discovery Institute (SBP) and complied with all relevant ethical regulations for animal testing and research. C57BL/6 mice were obtained from Sanford Burnham Prebys Medical Discovery Institute. OT-I mice were bred at SBP to CD45.1 mice (B6.SJLB6.SJL-Ptprc^a Pepc^b/BoyJ) that were obtained from Jackson Laboratories. C3H/HeOuJ mice were purchased from Jackson laboratories. Male 6-8-week-old mice were used for all experiments. […] Briefly, fresh feces were collected and analyzed by bacterial 16S rRNA gene-specific PCR (30 cycles, universal bacteria primers 8F and 1391R) in combination with aerobic and anaerobic culture of feces in Brain Heart Infusion, Wilkins-Chalgren and Yeast Mold broths, and on Tryptic Soy Agar plates (all media from Difco™ Becton Dickinson) at 37° C. for 7 days. […] Briefly, genomic DNA was extracted from fecal samples and ASF bacteria were quantified by qPCR with species-specific primers. […] Tumor size was measured twice a week for calculation of tumor volume. […]
In order to test the requirement for gut microbiota in prebiotic-induced tumor control, experiments were conducted using mice with a defined, minimal microbiota. […] Tumor size was monitored over the next 24 days.

[1] = B: 14 days after mucin feeding, A (prior to feeding) 0.001, p A vs B 0.001
[2] = C: 20 days post-tumor cell inoculation with mucin feeding
[3] = C: 20 days post-tumor cell inoculation with mucin feeding, p B vs C 0.006
[4] = C: 20 days post-tumor cell inoculation with mucin feeding, p B vs C 0.007
[5] = C: 20 days post-tumor cell inoculation with mucin feeding, p B vs C 0.011

For mucin, the “Abundance of phylotype group Clostridium cellulolyticum (93)” value (fecal microbiota; [1]) was 0.055, the “Abundance of phylotype group Dubosiella newyorkensis (93)” value (fecal microbiota; [1]) was 0.044 and the “Abundance of phylotype group Staphylococcus saprophyticus (100)” value (fecal microbiota; B: 14 days after mucin feeding, A (prior to feeding) 0.001, p A vs B 0.005) was 0.057. For the same substance, the “Abundance of phylotype group Corynebacterium ammoniagenes (99)” value (fecal microbiota; B: 14 days after mucin feeding, A (prior to feeding) 0.001, p A vs B 0.006) was 0.054, the “Abundance of phylotype group Olsenella profusa (92)” value (fecal microbiota; B: 14 days after mucin feeding, A (prior to feeding) 0.001, p A vs B 0.023) was 0.118 and the “Abundance of phylotype group Christensenella timonensis (88) / Anaerotruncus colihominis (88)” value (fecal microbiota; B: 14 days after mucin feeding, A (prior to feeding) 0.001, p A vs B 0.025) was 0.010. For the same substance, the “Abundance of phylotype group Gracilibacter thermotolerans (89) / Christensenella massiliensis (88)” value (fecal microbiota; B: 14 days after mucin feeding, A (prior to feeding) 0.001, p A vs B 0.036) was 0.006, the “Abundance of phylotype group Bifidobacterium pseudolongum (90)” value (fecal microbiota; B: 14 days after mucin feeding, A (prior to feeding) 0.001, p A vs B 0.049) was 0.025 and the “Abundance of phylotype group Ruminococcus lactaris (97) / Clostridium oroticum (97)” value (fecal microbiota; B: 14 days after mucin feeding, A (prior to feeding) 0.004, p A vs B 0.0005) was 0.062. The “Abundance of phylotype group Clostridium hylemonae (98) / Muricomes intestini (98) / Clostridium oroticum (98) XIVa” value (fecal microbiota; B: 14 days after mucin feeding, A (prior to feeding) 0.005, p A vs B 0.040) was 0.029, the “Abundance of phylotype group Desulfovibrio desulfuricans (95)” value (fecal microbiota; B: 14 days after mucin feeding, A (prior to feeding) 0.008, p A vs B 0.035) was 0.338 and the “Abundance of phylotype group Clostridium cellulovorans (89) / Christensenella massiliensis (88)” value (fecal microbiota; B: 14 days after mucin feeding, A (prior to feeding) 0.009, p A vs B 0.048) was 0.045. The “Abundance of phylotype group Eubacterium dolichum (93)” value (fecal microbiota; B: 14 days after mucin feeding, A (prior to feeding) 0.011, p A vs B 0.025) was 0.106, the “Abundance of phylotype group Clostridium viride (96) / Intestinimonas butyriciproducens (96) / Pseudoflavonifractor capillosus (95)” value (fecal microbiota; B: 14 days after mucin feeding, A (prior to feeding) 0.013, p A vs B 0.001) was 0.062 and the “Abundance of phylotype group Roseburia faecis (95)” value (fecal microbiota; B: 14 days after mucin feeding, A (prior to feeding) 0.013, p A vs B 0.009) was 0.124. The “Abundance of phylotype group Ihubacter massiliensis (98) / E. timonensis (96)” value (fecal microbiota; B: 14 days after mucin feeding, A (prior to feeding) 0.014, p A vs B 0.002) was 0.146, the “Abundance of phylotype group Clostridium xylanolyticum (98) / C. aerotolerans (97)” value (fecal microbiota; B: 14 days after mucin feeding, A (prior to feeding) 0.014, p A vs B 0.008) was 0.088 and the “Abundance of phylotype group Harryflintia acetispora (95) / Anaerotruncus colihominis (93)” value (fecal microbiota; B: 14 days after mucin feeding, A (prior to feeding) 0.017, p A vs B 0.043) was 0.040. For the same substance, the “Abundance of phylotype group Staphylococcus lentus (100)” value (fecal microbiota; B: 14 days after mucin feeding, A (prior to feeding) 0.024, p A vs B 0.030) was 0.349, the “Abundance of phylotype group Roseburia intestinalis (95) / Ruminococcus faecis (95) / E. rectale (95)” value (fecal microbiota; B: 14 days after mucin feeding, A (prior to feeding) 0.029, p A vs B 0.003) was 0.113 and the “Abundance of phylotype group Eubacterium dolichum (92)” value (fecal microbiota; B: 14 days after mucin feeding, A (prior to feeding) 0.045, p A vs B 0.00003) was 0.291. The “Abundance of phylotype group Murimonas intestini (97) / Clostridium celerecrescens (96) XIVa” value (fecal microbiota; B: 14 days after mucin feeding, A (prior to feeding) 0.104, p A vs B 0.009) was 0.300, the “Abundance of phylotype group Anaerotaenia torta (96) / C. xylanolyticum (95)” value (fecal microbiota; B: 14 days after mucin feeding, A (prior to feeding) 0.168, p A vs B 1 × 10^−6) was 0.421 and the “Abundance of phylotype group Olsenella profusa (95)” value (fecal microbiota; B: 14 days after mucin feeding, A (prior to feeding) 0.180, p A vs B 0.004) was 4.883. For the same substance, the “Abundance of phylotype group Clostridium cocleatum (99)” value (fecal microbiota; B: 14 days after mucin feeding, A (prior to feeding) 0.253, p A vs B 0.011) was 7.822, the “Abundance of phylotype group Muribaculum intesinale (92)” value (fecal microbiota; B: 14 days after mucin feeding, A (prior to feeding) 6.008, p A vs B 4 × 10^−7) was 17.058 and the “Abundance of phylotype group Bifidobacterium pseudolongum (90)” value (fecal microbiota; [2]) was 0.006. For the same substance, the “Abundance of phylotype group Clostridium cellulolyticum (93)” value (fecal microbiota; [2]) was 0.055, the “Abundance of phylotype group Clostridium cellulovorans (89) / Christensenella massiliensis (88)” value (fecal microbiota; [2]) was 0.038 and the “Abundance of phylotype group Clostridium cocleatum (99)” value (fecal microbiota; [2]) was 3.099. For the same substance, the “Abundance of phylotype group Clostridium hylemonae (98) / Muricomes intestini (98) / Clostridium oroticum (98) XIVa” value (fecal microbiota; [2]) was 0.030, the “Abundance of phylotype group Desulfovibrio desulfuricans (95)” value (fecal microbiota; [2]) was 0.533 and the “Abundance of phylotype group Eubacterium dolichum (92)” value (fecal microbiota; [2]) was 0.462. For the same substance, the “Abundance of phylotype group Eubacterium dolichum (93)” value (fecal microbiota; [2]) was 0.279, the “Abundance of phylotype group Gracilibacter thermotolerans (89) / Christensenella massiliensis (88)” value (fecal microbiota; [2]) was 0.020 and the “Abundance of phylotype group Murimonas intestini (97) / Clostridium celerecrescens (96) XIVa” value (fecal microbiota; [2]) was 0.462. The “Abundance of phylotype group Olsenella profusa (92)” value (fecal microbiota; [2]) was 0.068, the “Abundance of phylotype group Olsenella profusa (95)” value (fecal microbiota; [2]) was 3.256 and the “Abundance of phylotype group Ruminococcus lactaris (97) / Clostridium oroticum (97)” value (fecal microbiota; [2]) was 0.060. For the same substance, the “Abundance of phylotype group Dubosiella newyorkensis (93)” value (fecal microbiota; C: 20 days post-tumor cell inoculation with mucin feeding, p B vs C 0.001) was 0.005, the “Abundance of phylotype group Corynebacterium ammoniagenes (99)” value (fecal microbiota; [3]) was 0.002 and the “Abundance of phylotype group Harryflintia acetispora (95) / Anaerotruncus colihominis (93)” value (fecal microbiota; [3]) was 0.172. For the same substance, the “Abundance of phylotype group Clostridium viride (96) / Intestinimonas butyriciproducens (96) / Pseudoflavonifractor capillosus (95)” value (fecal microbiota; [4]) was 0.113, the “Abundance of phylotype group Muribaculum intesinale (92)” value (fecal microbiota; [4]) was 11.857 and the “Abundance of phylotype group Roseburia intestinalis (95) / Ruminococcus faecis (95) / E. rectale (95)” value (fecal microbiota; [4]) was 0.407. For the same substance, the “Abundance of phylotype group Roseburia faecis (95)” value (fecal microbiota; [5]) was 0.555, the “Abundance of phylotype group Staphylococcus saprophyticus (100)” value (fecal microbiota; [5]) was 0.006 and the “Abundance of phylotype group Christensenella timonensis (88) / Anaerotruncus colihominis (88)” value (fecal microbiota; C: 20 days post-tumor cell inoculation with mucin feeding, p B vs C 0.028) was 0.027. The “Abundance of phylotype group Staphylococcus lentus (100)” value (fecal microbiota; C: 20 days post-tumor cell inoculation with mucin feeding, p B vs C 0.034) was 0.033 and the SW1 tumor growth (SW1 tumor cells) was “failed to attenuate tumor growth”.
